Tests used:
[1] = test system: hyperalgesia rats induced with an acidic physiological saline; assay: Effect for pain relief in a hyperalgesia model of rat (acidic physiological saline-induced hyperalgesia, von Frey test); format: in vivo; details: male SD rats, orally administered 5 and 10 mg/kg, 0.5-3 hours after administration (FIG. 1)
Experimental: Test Example 1: Effect for Pain Relief in a Hyperalgesia Model of Rat
An acidic physiological saline-induced hyperalgesia model, which is known as a model of diseases accompanied by chronic musculoskeletal pain was made according to the method described in Muscle & Nerve 24, p. 37-46 (2001) with a slight modification.
In this test, male SD rats (Sprague-Dawley rats; 6 weeks of age at the start of the test) were employed. Under ether anesthesia, 100 μl of physiological saline adjusted to pH 4 with acetic acid was injected to the rat's right gastrocnemius muscle twice at an interval of 5 days. At 10th and 11th days from the 2nd injection, the following test was conducted. […] In this connection, the pain threshold of normal rats was approximately 11 g.
The above hyperalgesia rats induced with an acidic physiological saline were placed in a stainless steel cage (750width×210depth×170height in mm) and accommodated thereto for at least 20 minutes. Thereafter, the pain threshold (g) was determined prior to administration of the test compound (0 hour) and 0.5 hour, 1 hour, 1.5 hours, 2 hours and 3 hours after the administration. […]
Hyperalgesia was evaluated by the von Frey test, and the results were indicated by the thresholds (g). […] The pain threshold (g) was calculated according to the W. J. Dixon's up-down method (Annual Review of Pharmacology and Toxicology, 20, p. 441-462 (1980)).

[2] = test system: acidic physiological saline-induced hyperalgesia model; assay: Preventive effect on development of hyperalgesia in a rat model (acidic physiological saline, von Frey test); format: in vivo; details: male SD rats, 3 mg/kg orally once daily for 10 days, measured on the day following the final administration (FIG. 2)
Experimental: Test Example 2: Preventive Effect on Development of Hyperalgesia in a Rat Model The following experiment was carried out according to the method as described in Test Example 1. In this test, male SD rats (Sprague-Dawley rats; 6 weeks of age at the start of the test) were employed as 10 rats for each treatment-group. Under ether anesthesia, 100 μl of physiological saline adjusted to pH 4 with acetic acid was injected to the rat's right gastrocnemius muscle twice at an interval of 5 days. Thirty minutes after the 2nd injection and once daily thereafter, a test compound or solvent was administered repeatedly at a volume of 5 ml/kg to the above rats for a total of 10 days. The test compound was used as a suspension in 0.5% MC aqueous solution and orally administered (a group treated with Test Compound), and in a group to which a solvent was administered 0.5% MC aqueous solution alone was orally administered (a group treated with Solvent). On the day following the final administration, the pain threshold (g) was measured in the same manner as the von Frey test as described in Test Example 1. The above rats were placed in a stainless steel cage (750width×210depth×170height in mm) and accommodated thereto for at least 20 minutes; after that the measurement was conducted. From the above results, the followings were elucidated.

CCn1c(=O)c2c(nc(/C=C/c3ccc(OC)c(OC)c3)n2C)n(CC)c1=O [Compound 2]
pain threshold in comparison with that of the group treated with Solvent [1]: greatly increased | pain threshold (development of hyperalgesia) [2]: no decrease
